≈ marks a conversion by molar mass, not a printed value.
What was measured:
Format in all cases: binding, BALB/c mice
[1] = tested on: McAb 1B6; test: ic-ELISA cross-reactivity, McAb 1B6
Experimental: (§1) The cross-reactivities with nine permethrin pesticides (deltamethrin, permethrin, cypermethrin, bifenthrin, fenpermethrin, fluobenzene, beta-cyhalothrin, dextrofenthrin, cypermethrin) were obtained, and McAb was determined to clarify the specificity of the monoclonal antibody prepared. The IC50 of the nine permethrin pesticides was measured by the ic-ELISA with the obtained McAb and the coating antigen. The cross-reactivity was calculated with the following Formula (1):Cross-reactivity (CR, %) = IC50 of Fen/IC50 of Fen analogs × 100%(1)

[2] = tested on: McAb 2A11; test: ic-ELISA cross-reactivity, McAb 2A11
Experimental: as §1

[3] = tested on: McAb 5G2; test: ic-ELISA cross-reactivity, McAb 5G2
Experimental: as §1

[4] = IC50 of Fen/IC50 of analog × 100%

SMILES	IC50 [1]	IC50 [2]	IC50 [3]	CR% [1, 4] [%]	CR% [2, 4] [%]	CR% [3, 4] [%]
CC1(C)C(C=C(Cl)Cl)C1C(=O)OCc1cccc(Oc2ccccc2)c1 (stereo not drawn) [Permethrin]	>10,000 ng/mL	>10,000 ng/mL	>10,000 ng/mL	–	–	–
CC1(C)C(C=C(Cl)Cl)C1C(=O)OC(C#N)c1ccc(F)c(Oc2ccccc2)c1 (stereo not drawn) [Cyfluthrin]	>10,000 ng/mL	>10,000 ng/mL	>10,000 ng/mL	–	–	–
CC(C)=CC1C(C(=O)OCc2cccc(Oc3ccccc3)c2)C1(C)C [D-Phenothrin]	>10,000 ng/mL	>10,000 ng/mL	>10,000 ng/mL	–	–	–
CC1(C)[C@H](C(=O)O[C@H](C#N)c2cccc(Oc3ccccc3)c2)[C@@H]1C=C(Br)Br [Deltamethrin]	>10,000 ng/mL	>10,000 ng/mL	>10,000 ng/mL	–	–	–
Cc1c(COC(=O)[C@@H]2[C@H](/C=C(\Cl)C(F)(F)F)C2(C)C)cccc1-c1ccccc1 (racemic) [Bifenthrin]	>10,000 ng/mL	>10,000 ng/mL	>10,000 ng/mL	–	–	–
CC1(C)C(C(=O)OC(C#N)c2cccc(Oc3ccccc3)c2)C1(C)C (stereo not drawn) [Fenpropathrin]	>10,000 ng/mL	>10,000 ng/mL	>10,000 ng/mL	–	–	–
CC1(C)C(C=C(Cl)Cl)C1C(=O)OC(C#N)c1cccc(Oc2ccccc2)c1 (stereo not drawn) [Cypermethrin]	>10,000 ng/mL	>10,000 ng/mL	>10,000 ng/mL	–	–	–
CC1(C)[C@H](C(=O)O[C@H](C#N)c2cccc(Oc3ccccc3)c2)[C@@H]1/C=C(\Cl)C(F)(F)F (racemic) [Lambda-cyhalothrin]	>10,000 ng/mL	>10,000 ng/mL	>10,000 ng/mL	–	–	–
CC(C)C(C(=O)OC(C#N)c1cccc(Oc2ccccc2)c1)c1ccc(Cl)cc1 (stereo not drawn) [Fenvalerate]	36.6 ng/mL (≈ 0.0872 µM)	24.29 ng/mL (≈ 0.0578 µM)	21.65 ng/mL (≈ 0.0516 µM)	100	100	100
CC1(C)C(C=C(Cl)c2ccc(Cl)cc2)C1C(=O)OC(C#N)c1ccc(F)c(Oc2ccccc2)c1 (stereo not drawn) [Flumethrin]	>10,000 ng/mL	>10,000 ng/mL	>10,000 ng/mL	–	–	–
